Results taken from ChEMBL document CHEMBL4765276, “Synthesis of multimeric pyrrolidine iminosugar inhibitors of human β-glucocerebrosidase and α-galactosidase A: First example of a multivalent enzyme activity enhancer for Fabry disease” (Eur J Med Chem, 2020).

Assays:
[1] = biological target: T1, Lysosomal acid glucosylceramidase (Homo sapiens, UniProt P04062); assay: Inhibition of human recombinant lysosomal GCase using 4-methylumbelliferyl-beta-D-glucopyranoside as substrate preincubated for 45 mins followed by substrate addition and measured after 30 mins by fluorescence spectrophotometric assay
T1 sequence (P04062 whole entry): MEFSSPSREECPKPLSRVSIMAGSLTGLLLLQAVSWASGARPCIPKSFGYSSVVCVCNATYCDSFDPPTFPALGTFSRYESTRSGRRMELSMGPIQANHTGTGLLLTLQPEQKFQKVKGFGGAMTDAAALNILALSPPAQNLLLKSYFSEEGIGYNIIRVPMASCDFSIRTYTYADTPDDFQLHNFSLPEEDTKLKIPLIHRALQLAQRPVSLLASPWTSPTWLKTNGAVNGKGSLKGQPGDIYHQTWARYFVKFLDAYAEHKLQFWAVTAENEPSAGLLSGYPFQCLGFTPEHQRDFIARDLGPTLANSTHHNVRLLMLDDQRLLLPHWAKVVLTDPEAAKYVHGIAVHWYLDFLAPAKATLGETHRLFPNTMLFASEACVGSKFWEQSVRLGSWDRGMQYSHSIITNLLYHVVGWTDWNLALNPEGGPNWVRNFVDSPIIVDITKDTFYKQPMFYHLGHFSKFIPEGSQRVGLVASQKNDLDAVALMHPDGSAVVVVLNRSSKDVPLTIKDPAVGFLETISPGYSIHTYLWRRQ

[2] = biological target: T2, Alpha-galactosidase A (Homo sapiens) (UniProt P06280); assay: Inhibition of human recombinant lysosomal alpha-GalA at 1 mM using 4-methylumbelliferyl-[…] as substrate preincubated for 45 mins followed by substrate addition and measured after 30 mins by fluorescence spectrophotometric assay relative to control; conditions: time 75.0 min
T2 sequence (whole entry): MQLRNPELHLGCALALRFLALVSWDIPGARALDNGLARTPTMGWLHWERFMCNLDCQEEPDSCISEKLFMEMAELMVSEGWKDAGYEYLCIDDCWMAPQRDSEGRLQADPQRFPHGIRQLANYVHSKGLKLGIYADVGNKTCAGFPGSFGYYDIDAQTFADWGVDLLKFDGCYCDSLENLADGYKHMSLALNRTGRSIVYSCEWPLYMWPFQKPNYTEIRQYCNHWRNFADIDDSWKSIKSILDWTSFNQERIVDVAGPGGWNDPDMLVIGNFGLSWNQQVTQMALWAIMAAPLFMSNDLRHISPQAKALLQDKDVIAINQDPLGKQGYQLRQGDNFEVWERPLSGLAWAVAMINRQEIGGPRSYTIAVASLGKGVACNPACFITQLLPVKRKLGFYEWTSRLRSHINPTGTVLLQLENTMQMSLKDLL

[3] = biological target: T3, Lysosomal acid glucosylceramidase (Homo sapiens) (UniProt P04062); assay: Inhibition of human recombinant lysosomal GCase at 1 mM using 4-methylumbelliferyl-beta-D-glucopyranoside as substrate preincubated for 45 mins followed by substrate addition and measured after 30 mins by fluorescence spectrophotometric assay relative to control; conditions: time 75.0 min
T3 sequence (whole entry): T1 sequence (P04062 whole entry)

Alpha-galactosidase A = biological target: T4, Alpha-galactosidase A (Homo sapiens, UniProt P06280); assay: Inhibition of human recombinant lysosomal alpha-GalA using 4-methylumbelliferyl-[…] as substrate preincubated for 45 mins followed by substrate addition and measured after 30 mins by fluorescence spectrophotometric assay
T4 sequence (P06280 whole entry): T2 sequence (whole entry)

[4] = biological target: T1, Lysosomal acid glucosylceramidase; assay: Competitive inhibition of human recombinant lysosomal GCase using 4-methylumbelliferyl-beta-D-glucopyranoside as substrate preincubated for 45 mins followed by substrate addition and measured after 30 mins by fluorescence spectrophotometry based Lineweaver-Burk plot analysis

Row | IC50 [1] [µM] | inhibition [2] [%] | inhibition [3] [%] | IC50 (Alpha-galactosidase A) [µM] | Ki [4] [µM] | SMILES
1 |  |  | < 50 | 416 |  | O=C(CCCCC(=O)NC(COCc1cn(C[C@H]2NC[C@@H](O)[C@H]2O)nn1)(COCc1cn(C[C@H]2NC[C@@H](O)[C@H]2O)nn1)COCc1cn(C[C@H]2NC[C@@H](O)[C@H]2O)nn1)NC(COCc1cn(C[C@H]2NC[C@@H](O)[C@H]2O)nn1)(COCc1cn(C[C@H]2NC[C@@H](O)[C@H]2O)nn1)COCc1cn(C[C@H]2NC[C@@H](O)[C@H]2O)nn1
2 |  |  | < 50 | 309 |  | NC(COCc1cn(CCCc2cn(C[C@H]3NC[C@@H](O)[C@H]3O)nn2)nn1)(COCc1cn(CCCc2cn(C[C@H]3NC[C@@H](O)[C@H]3O)nn2)nn1)COCc1cn(CCCc2cn(C[C@H]3NC[C@@H](O)[C@H]3O)nn2)nn1
3 | 168 |  |  | 897 |  | O[C@@H]1[C@H](O)CN[C@H]1Cn1cc(CCCn2cc(COCC(COCc3cn(CCCc4cn(C[C@@H]5NC[C@@H](O)[C@H]5O)nn4)nn3)(COCc3cn(CCCc4cn(C[C@@H]5NC[C@@H](O)[C@H]5O)nn4)nn3)COCc3cn(CCCc4cn(C[C@@H]5NC[C@@H](O)[C@H]5O)nn4)nn3)nn2)nn1
4 |  | < 50 | < 50 |  |  | O=C(NC(COCc1cn(CCCc2cn(C[C@@H]3NC[C@@H](O)[C@H]3O)nn2)nn1)(COCc1cn(CCCc2cn(C[C@@H]3NC[C@@H](O)[C@H]3O)nn2)nn1)COCc1cn(CCCc2cn(C[C@@H]3NC[C@@H](O)[C@H]3O)nn2)nn1)c1cc(C(=O)NC(COCc2cn(CCCc3cn(C[C@@H]4NC[C@@H](O)[C@H]4O)nn3)nn2)(COCc2cn(CCCc3cn(C[C@@H]4NC[C@@H](O)[C@H]4O)nn3)nn2)COCc2cn(CCCc3cn(C[C@@H]4NC[C@@H](O)[C@H]4O)nn3)nn2)cc(C(=O)NC(COCc2cn(CCCc3cn(C[C@@H]4NC[C@@H](O)[C@H]4O)nn3)nn2)(COCc2cn(CCCc3cn(C[C@@H]4NC[C@@H](O)[C@H]4O)nn3)nn2)COCc2cn(CCCc3cn(C[C@@H]4NC[C@@H](O)[C@H]4O)nn3)nn2)c1
5 | 38 | < 50 |  |  | 55 | NC(COCc1cn(CCOCCOc2ccc(-c3cn(C[C@@H]4NC[C@@H](O)[C@H]4O)nn3)cc2)nn1)(COCc1cn(CCOCCOc2ccc(-c3cn(C[C@@H]4NC[C@@H](O)[C@H]4O)nn3)cc2)nn1)COCc1cn(CCOCCOc2ccc(-c3cn(C[C@@H]4NC[C@@H](O)[C@H]4O)nn3)cc2)nn1
6 |  |  | < 50 | 142 |  | O[C@@H]1[C@H](O)CN[C@@H]1Cn1cc(CCCn2cc(COCC(COCc3cn(CCCc4cn(C[C@H]5NC[C@@H](O)[C@H]5O)nn4)nn3)(COCc3cn(CCCc4cn(C[C@H]5NC[C@@H](O)[C@H]5O)nn4)nn3)COCc3cn(CCCc4cn(C[C@H]5NC[C@@H](O)[C@H]5O)nn4)nn3)nn2)nn1
7 | 333 |  |  | 483 |  | O=C(CCCCC(=O)NC(COCc1cn(CCCc2cn(C[C@@H]3NC[C@@H](O)[C@H]3O)nn2)nn1)(COCc1cn(CCCc2cn(C[C@@H]3NC[C@@H](O)[C@H]3O)nn2)nn1)COCc1cn(CCCc2cn(C[C@@H]3NC[C@@H](O)[C@H]3O)nn2)nn1)NC(COCc1cn(CCCc2cn(C[C@@H]3NC[C@@H](O)[C@H]3O)nn2)nn1)(COCc1cn(CCCc2cn(C[C@@H]3NC[C@@H](O)[C@H]3O)nn2)nn1)COCc1cn(CCCc2cn(C[C@@H]3NC[C@@H](O)[C@H]3O)nn2)nn1
8 |  | < 50 | < 50 |  |  | O=C(NC(COCc1cn(C[C@@H]2NC[C@@H](O)[C@H]2O)nn1)(COCc1cn(C[C@@H]2NC[C@@H](O)[C@H]2O)nn1)COCc1cn(C[C@@H]2NC[C@@H](O)[C@H]2O)nn1)c1cc(C(=O)NC(COCc2cn(C[C@@H]3NC[C@@H](O)[C@H]3O)nn2)(COCc2cn(C[C@@H]3NC[C@@H](O)[C@H]3O)nn2)COCc2cn(C[C@@H]3NC[C@@H](O)[C@H]3O)nn2)cc(C(=O)NC(COCc2cn(C[C@@H]3NC[C@@H](O)[C@H]3O)nn2)(COCc2cn(C[C@@H]3NC[C@@H](O)[C@H]3O)nn2)COCc2cn(C[C@@H]3NC[C@@H](O)[C@H]3O)nn2)c1
9 |  |  | < 50 | 286 |  | O=C(NC(COCc1cn(C[C@H]2NC[C@@H](O)[C@H]2O)nn1)(COCc1cn(C[C@H]2NC[C@@H](O)[C@H]2O)nn1)COCc1cn(C[C@H]2NC[C@@H](O)[C@H]2O)nn1)c1cc(C(=O)NC(COCc2cn(C[C@H]3NC[C@@H](O)[C@H]3O)nn2)(COCc2cn(C[C@H]3NC[C@@H](O)[C@H]3O)nn2)COCc2cn(C[C@H]3NC[C@@H](O)[C@H]3O)nn2)cc(C(=O)NC(COCc2cn(C[C@H]3NC[C@@H](O)[C@H]3O)nn2)(COCc2cn(C[C@H]3NC[C@@H](O)[C@H]3O)nn2)COCc2cn(C[C@H]3NC[C@@H](O)[C@H]3O)nn2)c1
10 | 1.1 | < 50 |  |  | 1.1 | O=C(NC(COCc1cn(CCOCCOc2ccc(-c3cn(C[C@@H]4NC[C@@H](O)[C@H]4O)nn3)cc2)nn1)(COCc1cn(CCOCCOc2ccc(-c3cn(C[C@@H]4NC[C@@H](O)[C@H]4O)nn3)cc2)nn1)COCc1cn(CCOCCOc2ccc(-c3cn(C[C@@H]4NC[C@@H](O)[C@H]4O)nn3)cc2)nn1)c1cc(C(=O)NC(COCc2cn(CCOCCOc3ccc(-c4cn(C[C@@H]5NC[C@@H](O)[C@H]5O)nn4)cc3)nn2)(COCc2cn(CCOCCOc3ccc(-c4cn(C[C@@H]5NC[C@@H](O)[C@H]5O)nn4)cc3)nn2)COCc2cn(CCOCCOc3ccc(-c4cn(C[C@@H]5NC[C@@H](O)[C@H]5O)nn4)cc3)nn2)cc(C(=O)NC(COCc2cn(CCOCCOc3ccc(-c4cn(C[C@@H]5NC[C@@H](O)[C@H]5O)nn4)cc3)nn2)(COCc2cn(CCOCCOc3ccc(-c4cn(C[C@@H]5NC[C@@H](O)[C@H]5O)nn4)cc3)nn2)COCc2cn(CCOCCOc3ccc(-c4cn(C[C@@H]5NC[C@@H](O)[C@H]5O)nn4)cc3)nn2)c1
11 |  | < 50 | < 50 |  |  | O=C(CCCCC(=O)NC(COCc1cn(C[C@@H]2NC[C@@H](O)[C@H]2O)nn1)(COCc1cn(C[C@@H]2NC[C@@H](O)[C@H]2O)nn1)COCc1cn(C[C@@H]2NC[C@@H](O)[C@H]2O)nn1)NC(COCc1cn(C[C@@H]2NC[C@@H](O)[C@H]2O)nn1)(COCc1cn(C[C@@H]2NC[C@@H](O)[C@H]2O)nn1)COCc1cn(C[C@@H]2NC[C@@H](O)[C@H]2O)nn1

The remaining lines, values behind:

Row | SMILES | IC50 [1] [µM] | inhibition [2] [%] | inhibition [3] [%] | IC50 (Alpha-galactosidase A) [µM] | Ki [4] [µM]
12 | NC(COCc1cn(CCCc2cn(C[C@@H]3NC[C@@H](O)[C@H]3O)nn2)nn1)(COCc1cn(CCCc2cn(C[C@@H]3NC[C@@H](O)[C@H]3O)nn2)nn1)COCc1cn(CCCc2cn(C[C@@H]3NC[C@@H](O)[C@H]3O)nn2)nn1 | 725 | < 50 |  |  | 
13 | COc1ccc(-c2cn(C[C@@H]3NC[C@@H](O)[C@H]3O)nn2)cc1 | 39 | < 50 |  |  | 55
14 | NC(COCc1cn(C[C@@H]2NC[C@@H](O)[C@H]2O)nn1)(COCc1cn(C[C@@H]2NC[C@@H](O)[C@H]2O)nn1)COCc1cn(C[C@@H]2NC[C@@H](O)[C@H]2O)nn1 |  | < 50 | < 50 |  | 
15 | COCc1cn(C[C@@H]2NC[C@@H](O)[C@H]2O)nn1 |  | < 50 | < 50 |  | 
16 | NC(COCc1cn(C[C@H]2NC[C@@H](O)[C@H]2O)nn1)(COCc1cn(C[C@H]2NC[C@@H](O)[C@H]2O)nn1)COCc1cn(C[C@H]2NC[C@@H](O)[C@H]2O)nn1 |  | < 50 | < 50 |  | 
17 | CCCc1cn(C[C@@H]2NC[C@@H](O)[C@H]2O)nn1 | 247 | < 50 |  |  | 
18 | COCc1cn(C[C@H]2NC[C@@H](O)[C@H]2O)nn1 |  | < 50 | < 50 |  | 
19 | CCCc1cn(C[C@H]2NC[C@@H](O)[C@H]2O)nn1 |  | < 50 | < 50 |  | 
